Measured values published in patent EP1369114A1, “Use of tryptophan metabolites as pharmaceutical agents” (Terness, Peter, Priv. Doz. Dr., priority 2002, dated 2003).

Tested on: kynurenine-suppressed T cells
Experiment: Polyclonal restimulation with Concanavalin A of T cells suppressed during anti-CD3 stimulation
Type: cell-based, human
Conditions: anti-CD3 plus kynurenine 2 days, washed, Con-A in the absence of kynurenine
Protocol: • (a) Allogeneic T-cell response. DCs were infected with recombinant IDO-adeno-GFP (DC-IDO-GFP), IDO-adeno (DC-IDO) or with control adenoviruses (DC-adeno) at a MOI (multiplicity of infection) up to 500 for 2 days. Lymphocytes (PBMCs) were separated from peripheral blood of healthy donors by density gradient centrifugation and typed for HLA antigens. Only HLA-DR-different responder lymphocytes were used for DC-induced stimulation. […] After 5 days, ^3[H]-thymidin was added for 12hrs and the number of counts (counts per minute = cpm) determined in a (3-counter (Inotech Biosystems, Lansing, MI). In order to verify whether IDO expression or adenovirus infection harm the DCs, 10^5 cells were infected with IDO-adeno-GFP, IDO-adenovirus, or adenovirus only at a stepwise decreasing MOI (500, 250, 125, ........ 3.9) and cell viability was measured in FACS following double staining with 7-AAD and anti-CD83 antibody-PE. The percentage of dead cells never exceeded 30% for any MOI following IDO-adeno-GFP- or IDO-adeno-infection and 40% following adenovirus(control)-infection. […] After 2 days, cell proliferation was assessed by measuring ^3[H]-thymidin incorporation (cpm) as described. • (c) Tryptophan metabolite titration curves. […] After 2 days, ^3[H] thymidin was added and the number of counts recorded. […] After another 2 days, ^3[H] thymidin was added and cpm determined. […]

Question: Nc1ccccc1C(=O)CC(N)C(=O)O (stereo not shown) [kynurenine] was tested. Which “restimulation with Con-A after suppression” value did it give?
Answer: Its value is “cannot be restimulated”.
